One block for each molecule: values may come before it.
Legend:
[1] = tested on: sheddases, proteinases of the ADAM family; settings: cited from earlier work
[2] = tested on: metalloproteinase activity in human saliva samples; assay: Proteinase activity assay in saliva with DQ-gelatin (fluorometry); format: biochemical; settings: compared with BB-94
Method: Proteinase activity assay: Total proteolytic activity in saliva samples was measured by fluorometry using the generic substrate DQ-gelatin (Molecular Probes Inc). An aliquot (usually 50 μl per 160 μl total assay volume) of each sample was mixed with substrate (10 μg/ml) in tricine buffer (50 mM Tricine, pH 7.4; 200 mM NaCl; 10 mM CaCl2; 0.05 mM ZnSO4; 0.005% Brij 35) and incubated at 37° C. An inhibitor cocktail comprising of inhibitors of serine, cysteine and aspartyl proteinases (‘Complete—EDTA free’, Roche Biochemicals, San Diego, Calif.) was included in the reactions for all the human saliva samples. Fluorometric measurements (excitation at 485 nm and emission at 538 nm) recorded every 10-20 minutes for 2 hours. These values were used to calculate an initial rate of enzyme activity (Fluorescence units/minute) which, for the murine samples, was then normalized for amylase concentration. To measure non-metalloproteinase activity, EDTA at a concentration of 30 mM was included in the assay mixture. Metalloproteinase (MP) activity was then determined as total less the EDTA-inhibited activity. Similarly, matrix metalloproteinase (MMP) activity, defined as the BB-94-inhibitible activity, was determined by subtracting the activity in the presence of BB-94 (25 μM) from total proteinase activity. […]

[3] = tested on: MMP9 specific bands (gelatinolytic activity) in saliva; settings: control gels treated with EDTA
Method: Zymography: 20 μl of each saliva sample was mixed with 5 μl of a sample buffer containing 250 mM Tris pH 6.8, 25% glycerol, 10% (w/v) SDS, 0.01% bromophenol blue and loaded onto 10% SDS-PAGE gels containing 0.25% porcine gelatin (Sigma). Molecular weight markers (Biowhittaker Molecular Applications, Rockland, Me., USA) and a positive control sample of conditioned medium from the human fibrosarcoma cell line HT-1080 were also included on the gel. Following electrophoresis, the gels were washed twice for 15 mins each in 2.5% Triton X-100 and then incubated overnight at 37° C. in a substrate buffer containing 50 mM Tris-HCl, pH 7.6 and 10 mM CaCl2 in the absence or presence of proteinase inhibitors EDTA (30 mM), BB-94 (20 μM), BMS-275291 (20 μM) or B428 (20 μM). Following incubation, the gels were stained with a solution of 0.5% (w/v) Coomassie Blue R250 prepared in 50% methanol: 10% acetic acid. Once stained, the gels were briefly de-stained in the same solution without the Coomassie Blue and then stored in distilled water. Areas of gelatinolytic activity appeared cleared against the blue background of the coomassie-stained undigested gelatin.

Structure (SMILES): CNC(=O)[C@H](Cc1ccccc1)NC(=O)[C@H](CC(C)C)[C@H](CSc1cccs1)C(=O)NO [BB-94]
activity against sheddases [1]: activity against sheddases

inhibition of salivary metalloproteinase activity (DQ-gelatin cleavage) [2]: results comparable to those with BB-94
Structure (SMILES): CNC(=O)[C@@H](NC(=O)[C@H](CC(C)C)NC(=O)[C@@H](S)CCN1C(=O)N(C)C(C)(C)C1=O)C(C)(C)C [BMS-275291]

Structure (SMILES): O=C(O)CN(CCN(CC(=O)O)CC(=O)O)CC(=O)O [EDTA]
gelatinolytic bands on zymography gels [3]: showed no bands

Reference: patent publication US20080254490A1, “Salivary Protease Assays for Identifying Increased Risk of Preterm Delivery Induced by Premature Rupture of Fetal Membranes” (priority 2005, published 2008)
